From patent publication US9463195B2, “Dissolution of amyloid fibrils by flavonoids and other compounds” (The Regents of the University of California, priority 2006, dated 2016)
Counter-ions that a name gives are not always drawn. Like-named read-outs stand apart in the source and are kept apart here.

Experiments:
[1] = target: T1, preformed human β-2 microglobulin fibrils (Homo sapiens, UniProt P61769); assay: Thioflavin T fluorescence high-throughput screen (slope assay score) for disruption of preformed fibrils; assay type: biochemical; conditions: for Slope Assay Score: slope of relative ThT fluorescence versus time, more negative = stronger disruption
Protocol: As used herein, “slope assay score” means the slope of the relative fluorescence of thioflavin T versus time curve for a given compound in a thioflavin T fluorescence assay. A negative slope signifies a decrease in thioflavin T fluorescence over time.
The human β-2 microglobulin fibrils were prepared in vitro at 0.1 mg/mL protein in 25 mM phosphate, pH 2, 0.2 M NaCl without agitation for 1 week at 37° C., in the same manner as Ivanova et al. See Ivanova et al. (Proc Natl Acad Sci U.S.A. 2004 Jul. 20; 101(29):10584-9).
In our experiments, disruption of the fibrillar structure of preformed β-2 microglobulin fibrils was monitored by fluorescence. The dye used, thioflavin T, serves as a probe for the presence or absence of amyloid fibrils. Thioflavin T binds specifically to human β-2 microglobulin fibrils, causing a red shift in the fluorescence excitation spectra of the dye to produce a peak in the fluorescence emission spectrum at 482 nm when the excitation wavelength is set at 444 nm. […] Because aliquotting of fibrils has an inherent variability, we aimed for a high signal/noise ratio of ˜10.
In the fluorescence assay used here, preformed human β-2 microglobulin fibrils were mixed with a solution of 5 μM ThT in 50 mM glycine, pH 8.6 in a 3:14 ratio (final concentrations: 4.1 μM ThT, 41.2 mM glycine, 0.018 mg/mL β-2 microglobulin, 35 mM NaCl and 4.4 mM phosphate). Fluorescence was measured immediately after mixing (excitation wavelength set at 444 nm, emission wavelengths at 482, 490, and 502 nm) with a Molecular Devices FlexStation II.
In our experiments, we screened 5200 compounds to determine whether a compound could disrupt preformed human β-2 microglobulin fibrils. Preformed β-2 microglobulin fibrils and ThT were mixed in the ratios described above in Example 2 and divided among seventeen 384-well glass-bottom plates (Costar #6569) using 40 μL/well. Each of the sixteen commercial plates contained four columns of control wells: columns 1, 2, and 23 contained preformed fibrils+dimethylsulfoxide (herein, DMSO), but no compound; column 24 contained nonfibrillar β2M+DMSO (no compound). The final concentrations of compound and DMSO in the other wells were 10 μM and 1%, respectively. Compounds were obtained from the following chemical libraries: the MicroSource Discovery Systems, Inc. Spectrum Collection library (J Virology 77: 10288 (2003); Ann Rev Med 56: 321 (2005)), the first four plates from the Prestwick Chemical Inc. library, two BIOMOL plates (phosphatase/kinase inhibitor library and bioactive lipid library), and the first five plates from the ChemBridge Corporation DIVERSet.
Plate 17 was prepared in-house and set up slightly differently than the commercial plates. Column 24 contains nonfibrillar B2M as in the other plates. However, only the first two rows contain added compounds, and the remaining rows contain control samples (fibrils mixed with thioflavin T, no compound). The chemicals used to prepare this supplemental plate were purchased from SIGMA. For each compound, a 1 mM solution in OmniSolv DMSO was prepared and filtered with Millex-FG 0.2 micron filters. The supplementary plate contained compounds at 1 or 10 mM in 100% DMSO, such that the final screening concentration is 10 or 100 μM compound in I% DMSO.
All plates were read manually on a Molecular Devices FlexStation II using the bottom-read function. For each of the wells, an initial fluorescence intensity measurement was taken as a baseline.

[2] = target: T1, preformed human β-2 microglobulin fibrils; assay: Dose-response testing by thioflavin T fluorescence; assay type: biochemical; conditions: for Dose-Response (conc. at which slope is better than control): ThT/β2M fibril fluorescence, tested 100 nM to 10 mM
Protocol: Twelve compounds were selected for testing their dose-response effects. Dose-response curves were derived as follows. Preformed β-2 microglobulin fibrils were mixed with ThT in the ratios described above and divided into portions of 40 μL per well across 8 wells. The final concentrations were the same as used in the high-throughput screen: 4.1 μM ThT, 41.2 mM glycine, 0.018 mg/mL B2M, 35 mM NaCl, 4.4 mM phosphate. The first and last wells of each row were controls (B2M fibrils+ThT+solvent (water or DMSO)). To wells 2-7 of a given row, test compound was added to the β2M fibril/ThT mix such that the following final concentrations in the well were reached: 10 mM, 1 mM, 100 μM, 10 μM, 1 μM, and 100 nM. Each row was set up in duplicate. The wells were incubated for 99 hours and data collected at 2.5 hour intervals. Compound 22 was tested using both water and DMSO as solvent.
It is visually apparent that concentrations down to 10 μM of both compound 22 and L18 affect the B2M/Tht fluorescence.

[3] = tested on: preformed β-amyloid fibrils; conditions: Bush 2002; cited from earlier work
β-amyloid fibrils = conditions: Bush study; cited from earlier work
[4] = target: T1, preformed human β-2 microglobulin fibrils; assay: Electron microscopy as a secondary screen of fibril disruption; assay type: biochemical; conditions: for effect on fibrils by electron microscopy: at the concentrations tested
Protocol: Electron microscopy was used to confirm the effects of, among others, compounds 22 and L18 on the fibrils. Compounds 22 and L18 were mixed with drug and solvent or solvent alone and were separately incubated with preformed human β-2 microglobulin fibrils for two weeks. Compound 22 was tested at three concentrations (1 mM, 100 μM, and 10 μM). Aliquots were taken immediately after mixing, at day 2, at day 5, day 7, and day 14. Samples were fixed to grids (made hydrophilic by glow-discharge) upon taking the aliquots, washed with distilled water, and stained with 1% uranyl acetate. Grids were examined in a Hitachi H-7000 transmission electron microscope operating at 75 kV. Images were collected on Kodak electron microscope film 4489.

[5] = Gordon M et al 2006; cited from earlier work

T1 sequence (P61769 21-119): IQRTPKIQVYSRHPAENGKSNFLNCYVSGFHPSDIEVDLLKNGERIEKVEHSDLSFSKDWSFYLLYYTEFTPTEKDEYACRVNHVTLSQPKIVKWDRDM

Compound | effective in the fluorescence assay at disrupting β-2 microglobulin fibers [1] | Slope Assay Score [1] | concentration at which the compound affects thioflavin T/β-2M fibril fluorescence in a dose-dependent manner [2] | dose-dependent effect on thioflavin T/β-2 microglobulin fibril fluorescence (words) [2] | Dose-Response (conc. at which slope is better than control) [2] [µM] | effect on fibrils by electron microscopy [4] | other results
CN1CCc2cccc3c2[C@H]1Cc1ccc(O)c(O)c1-3 [Apomorphine hydrochloride hemihydrate] | effective | −.061 | less than or equal to 1 μM | dose-dependent effect | 1 to 10 | – | –
Oc1c(I)cc(Cl)c2cccnc12 [Clioquinol] | – | – | – | – | – | – | disruption of preformed β-amyloid fibrils [3]: disrupts; effectiveness in mice (β-amyloid fibrils): effective
NC(CO)C(=O)NNCc1ccc(O)c(O)c1O (centres unmarked) [Compound L18, benserazide hydrochloride] | – | −.066 | 10 µM | – | 10 | had an effect on fibrils | dose-dependent effect on thioflavin T/β-2 microglobulin fibril fluorescence (words) ([2]; hydrochloride): dose-dependent; concentration at which preformed human B2M fibrils are disrupted ([2]; in the range of): ~10 µM; dose-dependent effect on thioflavin T/β-2 microglobulin fibril fluorescence (words) ([2]; listed as benserazide, hydrochloride): dose-related effects; plasma concentrations routinely achievable [5]: 6 µM
Cc1cc(O)c(C=O)c(O)c1C(=O)O [Haematommic Acid] | effective | −.076 | less than or equal to 10 μM | dose-dependent effect | 1 | visibly disrupted | state of fibrils by electron microscopy at 10 μM compound ([4]; 10 μM, two-week incubation): disrupted and unwound; state of fibrils by electron microscopy at 1 mM compound ([4]; two-week incubation): fibril dissolution was virtually complete
C=C1c2c(Cl)ccc(O)c2C(O)=C2C(=O)[C@]3(O)C(=O)/C(=C(\N)O)C(=O)[C@@H](N(C)C)[C@@H]3[C@@H](O)[C@H]12 [Meclocycline sulfosalicylate] | effective | −.066 | less than or equal to 10 μM | dose-dependent effect | 10 | visibly disrupted | state of fibrils by electron microscopy at 100 μM compound ([4]; two-week incubation): no intact fibrils present; state of fibrils by electron microscopy at 1 mM compound ([4]; two-week incubation): no visible fibrils
COc1cc(NC(C)CCCN)c2ncccc2c1 (centres unmarked) [Primaquine diphosphate] | effective | −.058 | less than or equal to 10 μM | dose-dependent effect | 10 | – | –
COc1cc(C)c2c(c1C=O)Oc1c(c(C)c(O)c3c1C(O)OC3=O)OC2=O (centres unmarked) [Stictic Acid] | effective | −.098 | ≤ 10 µM | dose-dependent effect | 10 | visibly disrupted | state of fibrils by electron microscopy at 100 μM compound ([4]; two-week incubation): mostly disrupted; state of fibrils by electron microscopy at 1 mM compound ([4]; two-week incubation): mostly disappeared
Cc1c(C(=O)O)c(O)cc2c1C(=O)c1c(O)c([C@@H]3O[C@H](CO)[C@@H](O)[C@H](O)[C@H]3O)c(O)c(O)c1C2=O [carminic acid] | effective | – | – | – | – | – | –
Cc1cc(N)c2ccccc2[n+]1CCCCCCCCCC[n+]1c(C)cc(N)c2ccccc21 [dequalinium dichloride] | effective | – | – | – | – | – | –
Clc1ccc(COC(Cn2ccnc2)c2ccc(Cl)cc2Cl)cc1 (centres unmarked) [econazole nitrate] | effective | – | – | – | – | – | –
COC(=O)c1c(C)c2c(c(C)c1O)OC(=O)c1c(C)c(Cl)c(O)c(Cl)c1O2 [leoidin] | effective | – | – | – | – | – | –
CCn1cc(C(=O)O)c(=O)c2ccc(C)nc21 [nalidixic acid] | effective | – | – | – | – | – | –
NCCc1cc(O)c(O)cc1O [oxidopamine] | effective | – | – | – | – | – | –
OC[C@H]1O[C@@H](Oc2cc(O)cc(/C=C/c3ccc(O)cc3)c2)[C@H](O)[C@@H](O)[C@@H]1O [resveratrol-3-glucoside] | – | – | – | – | – | did not have an effect on fibrils | –
Dobutamine hydrochloride | effective | −.058 | less than or equal to 10 μM | dose-dependent effect | 10 | – | –
